Results reported in patent publication US20180327367A1, “MACROCYCLIC BROAD SPECTRUM ANTIBIOTICS” (priority 2015, published 2018).
≈ marks a conversion by molar mass, not a printed value. Like-named read-outs stand apart in the source and are kept apart here.

Key:
[1] = system: Methicillin Resistant Staphylococcus aureus strain USA 300, NRS384; assay: Minimum inhibitory concentration, broth micro-dilution (CLSI), S. aureus; assay type: cell-based; conditions: Staphylococcus aureus, MRSA / NRS 384 / USA300, 22 h, 35° C., 22 hours
Procedure, shortened: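 Ten-point 2-fold series began at 4 μg/mL in protocol 2 and 0.5 μg/mL in protocol 3, in cation-adjusted MHB plus 0.002% Tween-80. Bacteria added to OD600 0.0005 final and incubated at 35° C for 22 hours per CLSI microdilution.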

[2] = system: Escherichia coli MC4100 harboring the IMP4213 (E. coli IMP); assay: microbe, parasite or virus in culture; assay type: cell-based; conditions: Escherichia coli, 22 h, read-out: MIC (μg/mL) E. coli IMP, E. coli MC4100 IMP4213, increased outer-membrane permeability; 35° C., 22 hours
Procedure, shortened: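 Colonies grown 20 hours at 35° C were suspended in cation-adjusted Mueller Hinton Broth with 0.002% Tween-80. Cells were then added to 2-fold compound dilutions starting at 4 or 0.5 μg/mL, at OD600 0.0005.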

[3] = system: Escherichia coli ATCC 25922; assay: Minimum inhibitory concentration, broth micro-dilution (CLSI), E. coli; assay type: cell-based; conditions: Escherichia coli, ATCC25922, 22 h, 35° C., 22 hours
[4] = molecular target: T1, SpsB (Staphylococcus aureus signal peptidase) (Staphylococcus aureus, UniProt P0A070); assay: cell-based; assay type: biochemical; conditions: SpsB IC50, whole-cell S. aureus (USA300 background, overexpressing SpsB) as SpsB source; fluorogenic peptide substrate, kinetic read 30 min
T1 construct: This assay uses a suspension of Staphylococcus aureus cells as a source of SpsB instead of recombinant SpsB protein; endogenous in cells; host or cells: S. aureus, USA300 background, overexpressing SpsB (whole-cell suspension from frozen pellets)
T1 sequence (P0A070 whole entry): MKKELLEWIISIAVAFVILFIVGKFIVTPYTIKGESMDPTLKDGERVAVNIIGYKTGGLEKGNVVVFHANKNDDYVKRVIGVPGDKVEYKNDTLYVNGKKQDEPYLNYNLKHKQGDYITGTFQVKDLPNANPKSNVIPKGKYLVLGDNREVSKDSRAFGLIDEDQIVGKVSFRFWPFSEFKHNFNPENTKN
Procedure, shortened: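 Whole S. aureus cells (USA300, overexpressing SpsB) in PBS with MgCl2, CaCl2 and 0.1% Tween-80 served as enzyme source, mixed with 20 μM stock of (Dabcyl)βAla-KPAKAAE(Edans) substrate before use. Fluorescence (ex 340/em 490 nm) read kinetically over 30 min. IC50 from reaction rate versus 11-point inhibitor concentration.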

[5] = MRSA USA 300 NRS384, read-out: MIC (μg/mL) S. aureus
[6] = E. coli ATCC 25922, read-out: MIC (μg/mL) E. coli
[7] = read-out: MIC (μg/mL) S. aureus, MRSA USA 300 NRS384
[8] = read-out: MIC (μg/mL) E. coli, E. coli ATCC 25922

SMILES	MIC [1, 5] [µg/mL]	MIC [2] [µg/mL]	MIC [3, 6] [µg/mL]	IC50 [4] [nM]	MIC [1, 7] [µg/mL]	MIC [3, 8] [µg/mL]
Cc1cc(OCC2(C)CCCCC2)ccc1C(=O)N[C@@H](CCN)C(=O)N(C)[C@@H]1C(=O)N[C@@H](C)C(=O)N[C@H](C(=O)NCC#N)Cc2ccc(OCCN)c(c2)-c2cc1ccc2OCCN [Compound 289]	0.031 (≈ 0.0351 µM)	0.0078 (≈ 0.00884 µM)	0.25 (≈ 0.283 µM)	0.93	–	–
CCCCCCCOc1cc(Cl)c(C(=O)N[C@@H](CCN)C(=O)N(C)[C@@H]2C(=O)N[C@@H](C)C(=O)N[C@H](C(=O)NCC#N)Cc3ccc(OCCN)c(c3)-c3cc2ccc3OCCN)c(Cl)c1 [Compound 290]	–	0.012 (≈ 0.013 µM)	–	1.2	0.063 (≈ 0.0681 µM)	0.38 (≈ 0.411 µM)
CCCCCCCOc1cc(F)c(C(=O)N[C@@H](CCN)C(=O)N(C)[C@@H]2C(=O)N[C@@H](C)C(=O)N[C@H](C(=O)NCC#N)Cc3ccc(OCCN)c(c3)-c3cc2ccc3OCCN)c(Cl)c1 [Compound 291]	0.063 (≈ 0.0693 µM)	0.0078 (≈ 0.00859 µM)	0.19 (≈ 0.209 µM)	1.3	–	–
CCCCCCCOc1cc(C)c(C(=O)N[C@@H](CCN)C(=O)N(C)[C@@H]2C(=O)N[C@@H](C)C(=O)N[C@H](C(=O)NCC#N)Cc3ccc(OCCN)c(c3)-c3cc2ccc3OCCN)c(C)c1 [Compound 292]	0.047 (≈ 0.0532 µM)	0.0078 (≈ 0.00882 µM)	0.38 (≈ 0.43 µM)	1.2	–	–
CCCCCCCOc1c(F)cc(C(=O)N[C@@H](CCN)C(=O)N(C)[C@@H]2C(=O)N[C@@H](C)C(=O)N[C@H](C(=O)NCC#N)Cc3ccc(OCCN)c(c3)-c3cc2ccc3OCCN)cc1Cl [Compound 293]	0.063 (≈ 0.0693 µM)	< 0.0039	0.38 (≈ 0.418 µM)	1.5	–	–
CCCCCCCOc1ccc(C(=O)N[C@@H](CCN)C(=O)N(C)[C@@H]2C(=O)N[C@@H](C)C(=O)N[C@H](C(=O)NCC#N)Cc3ccc(OCCN)c(c3)-c3cc2ccc3OCCN)c2ccccc12 [Compound 295]	0.031 (≈ 0.0342 µM)	< 0.0039	0.13 (≈ 0.143 µM)	0.69	–	–
CCCCCCOCc1ccc(C(=O)N[C@@H](CCN)C(=O)N(C)[C@@H]2C(=O)N[C@@H](C)C(=O)N[C@H](C(=O)NCC#N)Cc3ccc(OCCN)c(c3)-c3cc2ccc3OCCN)c(C)c1 [Compound 298]	0.063 (≈ 0.0724 µM)	0.0078 (≈ 0.00896 µM)	1 (≈ 1.15 µM)	0.82	–	–
CCCCCCCOc1cc(C)c(C(=O)N[C@@H](CCN)C(=O)N(C)[C@@H]2C(=O)N[C@@H](C)C(=O)N[C@H](C(=O)NCC#N)Cc3ccc(OCCN)c(c3)-c3cc2ccc3OCCN)c(Cl)c1 [Compound 299]	0.094 (≈ 0.104 µM)	0.016 (≈ 0.0177 µM)	0.5 (≈ 0.553 µM)	1.1	–	–
CCCCc1ccc(Oc2ccc(C(=O)N[C@@H](CCN)C(=O)N(C)[C@@H]3C(=O)N[C@@H](C)C(=O)N[C@H](C(=O)NCC#N)Cc4ccc(OCCN)c(c4)-c4cc3ccc4OCCN)c(C)c2)cc1 [Compound 303]	0.047 (≈ 0.052 µM)	0.012 (≈ 0.0133 µM)	0.19 (≈ 0.21 µM)	0.93	–	–
Cc1nc(Oc2ccc(CC(C)C)cc2)ncc1C(=O)N[C@@H](CCN)C(=O)N(C)[C@@H]1C(=O)N[C@@H](C)C(=O)N[C@H](C(=O)NCC#N)Cc2ccc(OCCN)c(c2)-c2cc1ccc2OCCN [Compound 304]	0.047 (≈ 0.0519 µM)	0.016 (≈ 0.0177 µM)	1 (≈ 1.1 µM)	0.68	–	–
Cc1nc(Oc2ccc(C(C)(C)C)cc2)ncc1C(=O)N[C@@H](CCN)C(=O)N(C)[C@@H]1C(=O)N[C@@H](C)C(=O)N[C@H](C(=O)NCC#N)Cc2ccc(OCCN)c(c2)-c2cc1ccc2OCCN [Compound 305]	0.063 (≈ 0.0695 µM)	0.016 (≈ 0.0177 µM)	1 (≈ 1.1 µM)	0.73	–	–
CCCCc1ccc(Oc2ncc(C(=O)N[C@@H](CCN)C(=O)N(C)[C@@H]3C(=O)N[C@@H](C)C(=O)N[C@H](C(=O)NCC#N)Cc4ccc(OCCN)c(c4)-c4cc3ccc4OCCN)c(C)n2)cc1 [Compound 306]	0.031 (≈ 0.0342 µM)	0.0078 (≈ 0.00861 µM)	1 (≈ 1.1 µM)	0.69	–	–
CCCC#Cc1ccc(C(=O)N[C@@H](CCN)C(=O)N(C)[C@@H]2C(=O)N[C@@H](C)C(=O)N[C@H](C(=O)NCC#N)Cc3ccc(OCCN)c(c3)-c3cc2ccc3OCCN)c(C)c1 [Compound 307]	0.25 (≈ 0.304 µM)	0.031 (≈ 0.0377 µM)	0.88 (≈ 1.07 µM)	3.5	–	–
CCC/C=C\c1ccc(C(=O)N[C@@H](CCN)C(=O)N(C)[C@@H]2C(=O)N[C@@H](C)C(=O)N[C@H](C(=O)NCC#N)Cc3ccc(OCCN)c(c3)-c3cc2ccc3OCCN)c(C)c1 [Compound 308]	0.063 (≈ 0.0765 µM)	0.016 (≈ 0.0194 µM)	1 (≈ 1.21 µM)	0.71	–	–
Cc1cc(C#CC(C)C)ccc1C(=O)N[C@@H](CCN)C(=O)N(C)[C@@H]1C(=O)N[C@@H](C)C(=O)N[C@H](C(=O)NCC#N)Cc2ccc(OCCN)c(c2)-c2cc1ccc2OCCN [Compound 309]	0.19 (≈ 0.231 µM)	0.02 (≈ 0.0243 µM)	1.1 (≈ 1.34 µM)	1	–	–
Cc1cc(C#CC2CCCCC2)ccc1C(=O)N[C@@H](CCN)C(=O)N(C)[C@@H]1C(=O)N[C@@H](C)C(=O)N[C@H](C(=O)NCC#N)Cc2ccc(OCCN)c(c2)-c2cc1ccc2OCCN [Compound 310]	0.047 (≈ 0.0545 µM)	0.0098 (≈ 0.0114 µM)	0.13 (≈ 0.151 µM)	0.99	–	–
C[C@@H]1NC(=O)[C@@H](N(C)C(=O)[C@H](CCN)NC(=O)c2ccc(C#CC3CCCCC3)cc2C(F)F)c2ccc(OCCN)c(c2)-c2cc(ccc2OCCN)C[C@@H](C(=O)NCC#N)NC1=O [Compound 311]	–	0.012 (≈ 0.0134 µM)	–	0.64	0.047 (≈ 0.0523 µM)	0.25 (≈ 0.278 µM)
CCCCCCCc1cc(C)c(C(=O)N[C@@H](CCN)C(=O)N(C)[C@@H]2C(=O)N[C@@H](C)C(=O)N[C@H](C(=O)NCC#N)Cc3ccc(OCCN)c(c3)-c3cc2ccc3OCCN)cn1 [Compound 313]	0.031 (≈ 0.0363 µM)	0.0078 (≈ 0.00912 µM)	0.5 (≈ 0.585 µM)	0.68	–	–
CCCCCCCCCCNCCC(=O)N(C)[C@@H]1C(=O)N[C@@H](C)C(=O)N[C@H](C(=O)NCC#N)Cc2ccc(O)c(c2)-c2cc1ccc2OCCN [Compound 316]	0.13 (≈ 0.184 µM)	2 (≈ 2.83 µM)	> 64	0.84	–	–
CCCCCCCCCCNCCC(=O)N(C)[C@@H]1C(=O)N[C@@H](C)C(=O)N[C@H](C(=O)NCC#N)Cc2ccc(OCCN)c(c2)-c2cc1ccc2O [Compound 317]	0.094 (≈ 0.133 µM)	1 (≈ 1.42 µM)	64 (≈ 90.7 µM)	0.87	–	–
C[C@@H]1NC(=O)[C@@H](N(C)C(=O)[C@H](CCCCN)NC(=O)c2ccc(-c3ccc(Cl)cc3)cc2)c2ccc(OCCN)c(c2)-c2cc(ccc2O)C[C@@H](C(=O)N[C@@H](C)C#N)NC1=O [Compound 319]	–	0.75 (≈ 0.881 µM)	–	6.3	2 (≈ 2.35 µM)	> 64
CCCCCCCCCCNCCC(=O)N[C@@H](CCCCN)C(=O)N(C)[C@@H]1C(=O)N[C@@H](C)C(=O)N[C@H](C(=O)NCC#N)Cc2ccc(O)c(c2)-c2cc1ccc2OCCN [Compound 320]	0.13 (≈ 0.156 µM)	2 (≈ 2.4 µM)	> 64	0.97	–	–
CCCCc1ccc(-c2ccc(C(=O)N[C@@H](CN)C(=O)N(C)[C@@H]3C(=O)N[C@@H](C)C(=O)N[C@H](C(=O)NCC#N)Cc4ccc(OCCO)c(c4)-c4cc3ccc4OCCN)cc2)cc1 [Compound 321]	–	0.016 (≈ 0.0186 µM)	–	1.8	0.38 (≈ 0.441 µM)	1 (≈ 1.16 µM)
CCCCc1ccc(-c2ccc(C(=O)N[C@@H](CN)C(=O)N(C)[C@@H]3C(=O)N[C@@H](C)C(=O)N[C@H](C(=O)NCC#N)Cc4ccc(OCCC)c(c4)-c4cc3ccc4OCCN)cc2)cc1 [Compound 322]	1.5 (≈ 1.75 µM)	0.13 (≈ 0.151 µM)	4 (≈ 4.66 µM)	8.4	–	–
CCCCCCCCCCCCCC(=O)N[C@@H](CCN)C(=O)N(C)[C@@H]1C(=O)N[C@@H](C)C(=O)N[C@H](C(=O)NCC#N)Cc2ccc(OCCC)c(c2)-c2cc1ccc2OCCN [Compound 323]	0.75 (≈ 0.885 µM)	0.094 (≈ 0.111 µM)	1.5 (≈ 1.77 µM)	2.8	–	–
CCCCCCCCCCCCCC(=O)N[C@@H](CCN)C(=O)N(C)[C@@H]1C(=O)N[C@@H](C)C(=O)N[C@H](C(=O)NCC#N)Cc2ccc(OCC)c(c2)-c2cc1ccc2OCCN [Compound 324]	0.25 (≈ 0.3 µM)	0.031 (≈ 0.0372 µM)	1 (≈ 1.2 µM)	0.82	–	–
CCCCCCCCCCCCCC(=O)N[C@@H](CCN)C(=O)N(C)[C@@H]1C(=O)N[C@@H](C)C(=O)N[C@H](C(=O)NCC#N)Cc2ccc(OCCO)c(c2)-c2cc1ccc2OCCN [Compound 325]	0.13 (≈ 0.153 µM)	< 0.0039	0.5 (≈ 0.589 µM)	0.77	–	–
CCCCCCCCCCCCCC(=O)N[C@@H](CCN)C(=O)N(C)[C@@H]1C(=O)N[C@@H](C)C(=O)N[C@H](C(=O)NCC#N)Cc2ccc(OC)c(c2)-c2cc1ccc2OCCN [Compound 326]	0.19 (≈ 0.232 µM)	0.016 (≈ 0.0195 µM)	1 (≈ 1.22 µM)	0.98	–	–
